From patent publication US5434247A, “Peptides for inducing monocyte cytotoxicity in diagnostics” (Board of Regents, The University of Texas System, priority 1992, dated 1995)
Entries after “also recorded” stand apart in the source; their conditions may differ. Like-named read-outs stand apart in the source and are kept apart here. *1 amine or outer side, *2 acyl side, *3 side chain or, on linkers, in order; H or OH if unused. Where a SMILES comes first, the peptide text is derived from it. Bridges are numbered along the chain shown (N, C = ends). Roman numbers before positions name the chains, in order. Where no end group is shown, it is not given here. [ ]: non-standard residue; d: D form. Actinocin(9to1) = Cc1c2oc3c(C)ccc(C(=O)[*:1])c3nc-2c(C(=O)[*:2])c(N)c1=O; NMeV = CN[C@H](C(=O)O)C(C)C; Sar = CNCC(=O)O

Legend:
[1] = tested on: human monocytes / K562; test: Human monocyte cytotoxicity assay (MCF assay), 111In-Ox labeled K562 targets; format: cell-based; conditions: for monocyte cytotoxicity inducing activity (in words) / concentration at which the peptide activates human blood monocytes for cytotoxicity: K562 target; for concentration at which the peptide activates human blood monocytes for cytotoxicity: purified peptide, monocytes of eight human donors
Experimental: FIG. 1. Hybrid cells were adjusted to 1×10^6 /ml and stimulated with 8 ug/ml PHA(+). […] to control (-) cultures, and both supernatants harvested by centrifugation. Monocyte cytotoxicity was measured as described herein with the exception that the monocyte monolayer was incubated overnight to allow for decay of NK cell activity. The monolayer was incubated for a second 24 hr period with dilutions of MCF containing supernatants. Dilutions represented are 1/4 in a total test volume of 0.2 ml. […] Microtiter plates were centrifuged 16 hrs later, and supernatants collected and counted. % specific release was calculated as described herein.
Only healthy volunteer donors were used. All volunteer donors signed an informed consent, and the protocol was approved by the Committee for the Protection of Human Subjects, University of Texas Health Science Center. Mononuclear cells were prepared by centrifugation over Ficoll/Hypaque. […] The monolayer was incubated overnight to allow for decay of residual natural killer activity before addition of lymphokine preparations on day 2.
The effector to target ratio was 30:1. […] After 18 hrs incubation of monocyte monolayer with target, the plates were centrifuged and supernatant was removed and cpms were counted in a Beckman Biogamma 2000. Specific release was calculated as described by Wiltrout, supra. […] Other tumor targets used were HL-60, L5178Y and TU5 (Table V).

[2] = tested on: FtF3 cells; test: Effects of metabolic inhibitors and tunicamycin on MCF production; format: cell-based, human; conditions: for biological activity of MCF after biosynthesis in the presence of the agent: tunicamycin 0, 1, 2.5 or 5.0 ug/ml; for effect on MCF production of PHA-stimulated FtF3 cells: cells incubated 4 h with inhibitor (0 to 100 ug/ml), washed, PHA 24 h; for effect on MCF production of nonstimulated (non-PHA treated) cells: puromycin at doses of 10-50 ug/ml
Experimental: (§1) FIG. 2. FtF3 cells were incubated 4 h with various doses of actinomycin D. Cells were washed and stimulated with PHA for 24 h before harvesting supernatants by centrifugation, extensive dialysis, and bioassay.( ) One set of each dose of inhibitor-treated cells was labelled with ^3 H-uridine, stimulated, lysed and harvested 24 h later, and counted by liquid scintillation.(.quadrature.) Viability of FtF3 at 24 h was greater than 80% at all doses tested.
as §1, with “3.” for “2.”, “cycloheximide.” for “actinomycin D.”, “3 H-amino acids,” for “^3 H-uridine,”, “TCA-precipitated” for “lysed and harvested”
FIG. 4. FtF3 cells were incubated 4 h with various doses of puromycin. Cells were washed and resuspended either with ( ) or without (.quadrature.) PHA, and incubated 24 h before harvesting supernatants by centrifugation, extensive dialysis, and bioassay. Viability of FtF3 at 24 h was greater than 80% at all doses tested.
Urea treatment was accomplished by adding 3 grams of solid urea to 10 ml MCF (28.5 U/ml) (5M urea final). Extraction of MCF with butanol-diisopropyl ether was performed. FtF3 cells were cultured with 0, 1, 2.5 or 5.0 ug/ml tunicamycin. […] MCF supernatants were extracted with butanol-diisopropyl ether; the aqueous phase contained 36.7% less MCF than the control preparation.
FtF3 cells at a concentration of 1×10^6 /ml in RPMI 1640/10% FCS were incubated 4 hours with either actinomycin D, cycloheximide, or puromycin (all at 0 to 100 ug/ml, Sigma). Tests for viability after treatment were performed by trypan blue exclusion and supernatants were collected by centrifugation. In a second set of experiments FtF3 cells at the same concentration but using 0.1% human serum were incubated for 5 hours with either cycloheximide or puromycin. Uptake experiments were performed by adjusting FtF3 cells to 1×10^6 /ml in media after treatment with inhibitor, and adding either 5,6-^3 H-uridine (ICN Radiochemicals, Irvine, Calif., USA, […]) to actinomycin D treated cells or ^3 H L-amino acid mixture (25.5 mci/mg) to cycloheximide-treated cells at 1 uCi to 1×10^5 cells. Cells were subsequently lysed and counted by liquid scintillation.

[3] = Enzyme treatment of MCF supernatants; format: physicochemical; conditions: in contrast to MCF
Experimental: In order to treat MCF supernatants with enzymes, 10 ml of the supernatant (28.5 units/ml) were treated with 1 mg/ml trypsin at pH 7.4, 1 mg/ml chymotrypsin at pH 7.4, 0.5 mg/ml DNase at pH 7.4, or 40 units/ml RNase at pH 5 for 1 hour at 25° C. […] The experiments were repeated using insolubilized enzymes to minimize the possibility that enzymes could be carried over into the bioassay and could explain the results.

[4] = all doses tested, trypan blue exclusion

rIL1β: recombinant IL 1 beta (Cistron Biotechnology) [reference compound]
% specific lysis ([1]; cytokine added at 0.1 U/ml): -8.7 ± 2.8%
% specific lysis ([1]; cytokine added at 1 U/ml): -4.9 ± 4.6%
% specific lysis ([1]; cytokine added at 10 U/ml): -1.8 ± 9.6%

Gly Ala Ala Val Leu (GAAVL; printed: Gly Ala Ala Val Leu) [MJ-3, truncated five-mer, native 5 N-terminal amino acids of P29]
monocyte cytotoxicity inducing activity (in words) [1]: not determined to be above the background for the assay
monocyte cytotoxicity inducing activity (in words) ([1]; listed as MJ3): did not reliably exhibit biological activity
specific release of label ([1]; one experiment, input of 10^2 mg of protein): 25%

tunicamycin
biological activity of MCF after biosynthesis in the presence of the agent [2]: no significant change

GM-CSF: recombinant GM-CSF [reference compound]
% specific lysis ([1]; cytokine added at 50 U/ml): -2.5 ± 15.9%
% specific lysis ([1]; cytokine added at 100 U/ml): 5.7 ± 3.1%
% specific lysis ([1]; cytokine added at 200 U/ml): -0.6 ± 4.9%

OCCS [2-mercaptoethanol]
biological activity of MCF after biosynthesis in the presence of the agent [2]: no significant change

C[C@@H]1C[C@@H]([C@H](O)CC2CC(=O)NC(=O)C2)C(=O)[C@@H](C)C1 [cycloheximide]
lectin-induced MCF production with inhibitor present for the entire incubation period [2]: not suppressed
Viability of FtF3 at 24 h [2, 4]: greater than 80%
effect on MCF production of PHA-stimulated FtF3 cells [2]: suppressed but did not abolish
effect on MCF production of nonstimulated (non-PHA treated) cells [2]: only a slight stimulatory effect

IFN-α [reference compound]
% specific lysis ([1]; cytokine added at 1 U/ml): 4.5 ± 3.0%
% specific lysis ([1]; cytokine added at 10 U/ml): -5.4 ± 9.2%
% specific lysis ([1]; cytokine added at 100 U/ml): -2.1 ± 12.4%
% specific lysis ([1]; cytokine added at 1000 U/ml): -8.9 ± 8.8%

COc1ccc(C[C@H](N)C(=O)N[C@H]2[C@@H](O)[C@H](n3cnc4c(N(C)C)ncnc43)O[C@@H]2CO)cc1 [puromycin]
Viability of FtF3 at 24 h [2]: greater than 80%
lectin-induced MCF production with inhibitor present for the entire incubation period [2]: suppressive in a dose-dependent manner
effect on MCF production of PHA-stimulated FtF3 cells [2]: suppressed but did not totally abolish
effect on MCF production of nonstimulated (non-PHA treated) cells [2]: appeared to stimulate

Cc1c2oc3c(C)ccc(C(=O)N[C@@H]4C(=O)N[C@H](C(C)C)C(=O)N5CCC[C@H]5C(=O)N(C)CC(=O)N(C)[C@@H](C(C)C)C(=O)O[C@@H]4C)c3nc-2c(C(=O)N[C@@H]2C(=O)N[C@H](C(C)C)C(=O)N3CCC[C@H]3C(=O)N(C)CC(=O)N(C)[C@@H](C(C)C)C(=O)O[C@@H]2C)c(N)c1=O [actinomycin D] (I: T[dV]P[Sar][NMeV] / II: T[dV]P[Sar][NMeV]; ester I:1-I:C, II:1-II:C; linker I:N-II:N via Actinocin(9to1))
Viability of FtF3 at 24 h [2, 4]: greater than 80%
effect on MCF production of PHA-stimulated FtF3 cells [2]: totally suppressed
effect on MCF production of nonstimulated (non-PHA treated) cells [2]: no effect

GAAVLEDSQ [MJ-2]
monocyte cytotoxicity inducing activity (in words) [1]: exhibits the same high level activity as the intact protein of 29kD; also recorded: capable of activating human blood monocytes for tumor cytotoxicity; also recorded: to a similar extent as the intact protein of 29kD
concentration at which the peptide activates human blood monocytes for cytotoxicity [1]: approximately 10^-9 M

GAAVLENSQ [MJ-1]
monocyte cytotoxicity inducing activity (in words) [1]: capable of inducing human monocyte cytotoxicity; also recorded: found to have biological MCF activity
decrease in the biological activity of the peptide by the substitution, versus MJ-2 ([1]; parallel assays, same human donors): ~3 log fold
concentration at which the peptide activates human blood monocytes for cytotoxicity [1]: 10^-6 M

Leu Glu Asp Ser Gln (LEDSQ) [MJ-5]
monocyte cytotoxicity inducing activity (in words) [1]: critical for biological activity

B1: m-CSF: purified m-CSF (protein, UniProt P09603 33-554, looked up)
Macrophage colony-stimulating …: EEVSEYCSHMIGSGHLQSLQRLIDSQMETSCQITFEFVDQEQLKDPVCYLKKAFLLVQDIMEDTMRFRDNTPNAIAIVQLQELSLRLKSCFTKDYEEHDKACVRTFYETPLQLLEKVKNVFNETKNLLDKDWNIFSKNCNNSFAECSSQDVVTKPDCNCLYPKAIPSSDPASVSPHQPLAPSMAPVAGLTWEDSEGTEGSSLLPGEQPLHTVDPGSAKQRPPRSTCQSFEPPETPVVKDSTIGGSPQPRPSVGAFNPGMEDILDSAMGTNWVPEEASGEASEIPVPQGTELSPSRPGGGSMQTEPARPSNFLSASSPLPASAKGQQPADVTGTALPRVGPVRPTGQDWNHTPQKTDHPSALLRDPPEPGSPRISSLRPQGLSNPSTLSAQPQLSRSHSSGSVLPLGELEGRRSTRDRRSPAEPEGGPASEGAARPLPRFNSVPLTDTGHERQSEGSFSPQLQESVFHLLVPSVILVLLAVGGLLFYRWRRRSHQEPQRADSPLEQPEGSPLTQDDRQVELPV
% specific lysis ([1]; cytokine added at 17.3 U/ml): 26.0 ± 6.5%
% specific lysis ([1]; cytokine added at 173 U/ml): 14.5 ± 4.6%
% specific lysis ([1]; cytokine added at 1730 U/ml): -3.9 ± 4.7%

B2: eIL1α: recombinant IL 1 alpha (Cistron Biotechnology) (protein, UniProt P01583 113-271, looked up)
Interleukin-1 alpha: SAPFSFLSNVKYNFMRIIKYEFILNDALNQSIIRANDQYLTAAALHNLDEAVKFDMGAYKSSKDDAKITVILRISKTQLYVTAQDEDQPVLLKEMPEIPKTITGSETNLLFFWETHGTKNYFTSVAHPNLFIATKQDYWVCLAGGPPSITDFQILENQA
% specific lysis ([1]; cytokine added at 0.1 U/ml): -4.1 ± 4.1%
% specific lysis ([1]; cytokine added at 1 U/ml): -3.6 ± 5.6%
% specific lysis ([1]; cytokine added at 10 U/ml): -0.7 ± 7.6%

B3: IFN-γ: human gamma interferon (protein, UniProt P01579 24-161, looked up)
Interferon gamma: QDPYVKEAENLKKYFNAGHSDVADNGTLFLGILKNWKEESDRKIMQSQIVSFYFKLFKNFKDDQSIQKSVETIKEDMNVKFFNSNKKKRDDFEKLTNYSVTDLNVQRKAIHELIQVMAELSPAAKTGKRKRSQMLFRG
effect of trypsin [3]: inactivated
monocyte cytotoxicity inducing activity (in words) [1]: only slight activity
increase in specific lysis ([1]; amounts up to 1000 U/ml final concentration): 6.2%
% specific lysis ([1]; cytokine added at 10 U/ml): -3.5 ± 1.1%
% specific lysis ([1]; cytokine added at 100 U/ml): 3.4 ± 3.2%
% specific lysis ([1]; cytokine added at 1000 U/ml): 6.2 ± 4.4%
